This passage reports GI50 and TGI results from PubChem BioAssay (NCI).

SMILES strings stand for the structures.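 Exposure lasted 48 hours, with cells grown in 96-well plates and compounds tested at five concentrations. At the GI50, growth is halved. The concentration for full growth arrest is given as TGI.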 Where only a bound is given, the exact number is not on record here.

Test systems include PC-3 prostate; A549 NSCLC; HS 578T breast; COLO 205 colon; OVCAR-5 ovarian; A498 renal; U251 CNS; LOX IMVI melanoma; MDA-MB-231 breast; T-47D breast.
Common to all, as to experiment: NCI anticancer screen, dose series, 48 h

Consider `Nc1n[nH]c(N)c1N=Nc1ccc(O)cc1`, for which the GI50 is 20.3 µM with PC-3 prostate; 22.5 µM with A549 NSCLC; 21.8 µM with HS 578T breast; 18.9 µM in the assay with COLO 205 colon; 23.5 µM in the assay on OVCAR-5 ovarian; 18.2 µM in the assay on A498 renal. Moreover, the GI50 in the assay with U251 CNS was 21.2 µM; in the assay on LOX IMVI melanoma, 4.09 µM; with MDA-MB-231 breast, 16.8 µM; in the assay with T-47D breast it was 14.2 µM. The TGI in the assay on PC-3 prostate is above 100 µM; with A549 NSCLC it was above 100 µM; in the assay on HS 578T breast, 77.8 µM; in the assay with COLO 205 colon, 54.2 µM; with OVCAR-5 ovarian, above 100 µM; in the assay with A498 renal, 43.7 µM. In addition, the TGI is 86.2 µM in the assay on U251 CNS, 53.6 µM in the assay on LOX IMVI melanoma, 82.8 µM with MDA-MB-231 breast and 87.5 µM in the assay with T-47D breast.

`O=c1cccc(C#CC#CCCCO)o1`: the GI50 in the assay on PC-3 prostate is 3.13 µM; in the assay on A549 NSCLC, 17.8 µM; in the assay on HS 578T breast, 9.68 µM; with COLO 205 colon it was 2.94 µM; with OVCAR-5 ovarian it was 5.57 µM; with A498 renal, 23.7 µM. Besides, the GI50 in the assay with U251 CNS is 2.74 µM; with LOX IMVI melanoma, 2.51 µM; in the assay with MDA-MB-231 breast, 1.99 µM; in the assay with T-47D breast, 3.64 µM. The TGI in the assay with PC-3 prostate is above 22.8 µM; in the assay with A549 NSCLC, above 58.8 µM; with HS 578T breast, 25.5 µM; in the assay with COLO 205 colon it was 7.87 µM; in the assay on OVCAR-5 ovarian, 11.6 µM; with A498 renal, 40.5 µM. The TGI is 7.96 µM in the assay with U251 CNS, above 27.9 µM in the assay with LOX IMVI melanoma, 4.82 µM with MDA-MB-231 breast and 27.3 µM in the assay on T-47D breast.

Consider `CCOC1OC(=O)[C@H]2[C@@H]1[C@@H]1CC[C@H]2O1` (stereo not given in full), for which the GI50 with PC-3 prostate is above 100 µM; with A549 NSCLC it was above 100 µM; in the assay on HS 578T breast, above 100 µM; in the assay on COLO 205 colon it was 7.96 µM; in the assay on OVCAR-5 ovarian, above 100 µM; in the assay on A498 renal it was above 100 µM. The GI50 in the assay with U251 CNS was above 100 µM; in the assay on LOX IMVI melanoma it was above 100 µM; with MDA-MB-231 breast it was above 100 µM; in the assay with T-47D breast it was above 59.1 µM. For the same molecule, the TGI in the assay with PC-3 prostate was above 100 µM; in the assay on A549 NSCLC it was above 100 µM; with HS 578T breast, above 100 µM; in the assay on COLO 205 colon it was above 19.8 µM; with OVCAR-5 ovarian, above 100 µM; in the assay on A498 renal, above 100 µM. Also, the TGI with U251 CNS, in the assay on LOX IMVI melanoma, with MDA-MB-231 breast and in the assay with T-47D breast was above 100 µM in each case.

For the molecule `CC1=C(C(=O)Nc2ccc(F)c(Cl)c2)C(c2ccccc2O)NC(=O)N1` (stereo not given), the GI50 in the assay on PC-3 prostate was 58.8 µM; in the assay with A549 NSCLC it was above 100 µM; with HS 578T breast, 76.3 µM; in the assay with COLO 205 colon it was above 100 µM; in the assay with OVCAR-5 ovarian it was above 100 µM; with A498 renal, above 100 µM. The GI50 in the assay on U251 CNS was above 100 µM; with LOX IMVI melanoma, 80.5 µM; in the assay on MDA-MB-231 breast, 27.4 µM; with T-47D breast it was 42.4 µM. The TGI in the assay on PC-3 prostate, in the assay on A549 NSCLC, with HS 578T breast, with COLO 205 colon, in the assay on OVCAR-5 ovarian and in the assay with A498 renal was above 100 µM in each case. Besides, the TGI with U251 CNS, in the assay with LOX IMVI melanoma, with MDA-MB-231 breast and with T-47D breast was above 100 µM in each case.

Consider `NS(=O)(=O)c1cccc(-c2ccc3c(NC(=O)C4CC4)n[nH]c3c2)c1`, for which the GI50 in the assay with PC-3 prostate is 15.6 µM; with A549 NSCLC it was above 25 µM; with HS 578T breast, 9.6 µM; with COLO 205 colon, above 14.5 µM; in the assay on OVCAR-5 ovarian, above 25 µM; in the assay on A498 renal it was above 19.8 µM. For the same molecule, the GI50 was 12.8 µM with U251 CNS, 19.4 µM with LOX IMVI melanoma, 25 µM in the assay on MDA-MB-231 breast and 13.3 µM in the assay with T-47D breast. For the same molecule, the TGI in the assay with PC-3 prostate is above 25 µM; in the assay with A549 NSCLC, above 25 µM; in the assay with HS 578T breast, above 25 µM; with COLO 205 colon it was above 22.9 µM; in the assay with OVCAR-5 ovarian, above 25 µM; in the assay with A498 renal, above 25 µM. In addition, the TGI in the assay on U251 CNS, with LOX IMVI melanoma, in the assay on MDA-MB-231 breast and in the assay with T-47D breast was above 25 µM each time.

As for `C=C1C(=O)O[C@H]2[C@H]1CC/C(CNC(=O)/C=C/c1ccccc1)=C\CC[C@@]1(C)O[C@@H]21`, the GI50 in the assay on PC-3 prostate is 1.92 µM; in the assay on A549 NSCLC, 4.39 µM; with HS 578T breast, 4.21 µM; in the assay with COLO 205 colon it was 0.966 µM; in the assay with OVCAR-5 ovarian it was 1.61 µM; in the assay on A498 renal, 1.96 µM. Further, the GI50 in the assay on U251 CNS was 1.77 µM; with LOX IMVI melanoma, 0.997 µM; with MDA-MB-231 breast, 1.59 µM; in the assay on T-47D breast it was 1.44 µM. In addition, the TGI turned out to be 4.15 µM with PC-3 prostate; 19 µM in the assay with A549 NSCLC; 37 µM in the assay with HS 578T breast; 2.6 µM in the assay with COLO 205 colon; 4.27 µM in the assay with OVCAR-5 ovarian; 4 µM in the assay with A498 renal. Moreover, the TGI in the assay on U251 CNS came out at 3.55 µM; in the assay on LOX IMVI melanoma, 2.29 µM; in the assay on MDA-MB-231 breast, 3.08 µM; in the assay on T-47D breast, 4.3 µM.

For `Cc1cccc2c(Nc3ccc(NS(C)(=O)=O)cc3)c3ccc([N+](=O)[O-])cc3nc12`, the GI50 in the assay with PC-3 prostate is 1.49 µM; with A549 NSCLC it was 0.128 µM; in the assay on HS 578T breast it was 1.23 µM; in the assay with COLO 205 colon it was 1.03 µM; in the assay with OVCAR-5 ovarian it was 3.95 µM; with A498 renal it was 0.703 µM. For the same molecule, the GI50 in the assay on U251 CNS was 0.419 µM; in the assay on LOX IMVI melanoma, 0.409 µM; in the assay on MDA-MB-231 breast it was 2.05 µM; with T-47D breast, 0.147 µM. Moreover, the TGI in the assay on PC-3 prostate was found to be 7.02 µM; with A549 NSCLC it was 3.24 µM; with HS 578T breast, 5.42 µM; in the assay on COLO 205 colon, 3.79 µM; in the assay on OVCAR-5 ovarian it was 21.1 µM; in the assay on A498 renal, 3.81 µM. Besides, the TGI with U251 CNS came to 6.36 µM; with LOX IMVI melanoma, 2.13 µM; with MDA-MB-231 breast it was 5.42 µM; in the assay with T-47D breast, 9.32 µM.
